Tests used:
[1] = molecular target: T1, lipase from Pseudomonas cepacia (PCL) (Burkholderia cepacia, UniProt P22088); experiment: Inhibition of lipase activity in Triton X-100 micelles, continuous fluorescence method; format: biochemical; conditions: incubation 4° C., 16 hrs; FIG. 3b
T1 construct: R.D. Schmid, University of Stuttgart (obtained, not a commercial purchase)
Method: (§1) Inhibition of lipase activity by the water-insoluble phosphonates was performed in Triton X-100 micelles (2 mM final concentration) and measured by a continuous fluorescence method according to Duque et al, (J. Lipid Res. 37, 868-876 (1996)) using 3-O-hexadecyl-2-pyrenedecanoyl-1-trinitrophenylaminododecanoyl-sn-glycerol as a substrate. Lipase activity was determined at 30° C. from the dequenching of pyrene fluorescence at 378 nm (excitation at 342 nm, slit widths 5.0 nm each) (the initial linear increase in fluorescence intensity after addition of the lipase was used to measure enzyme activity). The measurements were performed in ethanol-water (1:3 by vol.) as a solvent.
(§2) Triton X-100 specially purified for membrane research (Hofmann La Roche) (10 μL of a 100 mM stock solution in chloroform) and the appropriate volume of a phosphonate solution in chloroform were mixed and the solvent was removed under a stream of nitrogen. The residue was dispersed in an 100 μM Tris-HCl puffer (pH 7.40 at 37° C.) by vigorous vortexing followed by addition of an aliquot of a lipase solution, giving a total volume of 500 μL. Incubations were performed at 4° C. The percentage of inhibition after 16 hrs in the reaction mixture was determined by measuring the residual lipase activity of appropriate aliquots (3 μL) as indicated above. Controls were run in parallel under identical conditions but in the absence of inhibitors.
(§3) The novel compounds were tested with respect to their ability to inhibit three selected microbial lipases with different substrate preferences. The lipase from Rhizopus oryzae was efficiently inactivated by the perylene- and NBD-inhibitors (FIG. 3a) at 4° C. for 16 hrs in 100 μM Tris-HCl puffer at inhibitor and lipase concentrations of 1.0 mM and 0.1 mM, respectively. […] This is in line with the assumption that lipases prefer long-chain glycerol esters as substrates, and evidently inhibitors as well. […] In contrast, the Pseudomonas species lipase was quantitatively inactivated by all synthesized organophosphonates (FIG. 3c).

[2] = molecular target: T2, lipase from Rhizopus oryzae (ROL) (Rhizopus oryzae, UniProt P61872); experiment: as above; format: biochemical; conditions: 4° C. for 16 hrs, 100 μM Tris-HCl puffer, inhibitor 1.0 mM, lipase 0.1 mM; FIG. 3a
T2 construct: F. Spener and L. Haalck, University of Münster (gift)
T2 sequence (P61872 96-392): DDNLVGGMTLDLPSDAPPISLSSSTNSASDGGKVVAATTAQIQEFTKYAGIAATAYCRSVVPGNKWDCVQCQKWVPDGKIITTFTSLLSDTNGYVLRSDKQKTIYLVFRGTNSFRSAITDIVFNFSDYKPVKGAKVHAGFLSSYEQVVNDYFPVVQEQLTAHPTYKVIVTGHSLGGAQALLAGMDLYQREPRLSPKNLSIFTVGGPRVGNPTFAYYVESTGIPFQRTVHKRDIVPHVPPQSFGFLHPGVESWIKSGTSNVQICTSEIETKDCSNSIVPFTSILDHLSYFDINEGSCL
Method: as §1, §2, §3

T1 sequence (P22088 45-364): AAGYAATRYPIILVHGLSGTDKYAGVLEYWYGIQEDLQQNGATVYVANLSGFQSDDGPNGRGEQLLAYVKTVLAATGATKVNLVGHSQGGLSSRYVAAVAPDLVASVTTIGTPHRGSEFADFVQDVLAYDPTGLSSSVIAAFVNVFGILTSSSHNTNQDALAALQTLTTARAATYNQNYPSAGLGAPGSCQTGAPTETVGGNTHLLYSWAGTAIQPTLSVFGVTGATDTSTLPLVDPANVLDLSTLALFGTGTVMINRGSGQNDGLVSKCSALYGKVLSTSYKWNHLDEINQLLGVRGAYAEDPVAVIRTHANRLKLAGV

| Structure (SMILES) | inhibition of lipase from Pseudomonas cepacia [1] | inhibition (inactivation) of lipase from Rhizopus oryzae [2] |
| --- | --- | --- |
| CCCCCCCCOCC(COP(=O)(CCCCCC)Oc1ccc([N+](=O)[O-])cc1)NC(=O)CCCc1ccc2c3cccc4cccc(c5cccc1c52)c43 (stereo not drawn) [XXII, 2-(4-(3-Perylenyl)butanoyl)amino-2-deoxy-3-O-octyl-sn-glycero-1-O-hexylphosphonate p-nitrophenyl ester] | much more potent inhibitor | – |
| CCCCCCCCCCCCCCCCOCC(COP(=O)(CCCCCC)Oc1ccc([N+](=O)[O-])cc1)NC(=O)CCCCCCCc1ccc2c3cccc4cccc(c5cccc1c52)c43 (stereo not drawn) [XXIII, 2-(8-(3-Perylenyl)octanoyl)amino-2-deoxy-3-O-hexadecyl-sn-glycero-1-O-hexylphosphonate p-nitrophenyl ester] | – | somewhat more active |
| CCCCCCCCCCCCCCCCOCC(COP(=O)(CCCCCC)Oc1ccc([N+](=O)[O-])cc1)NC(=O)CCCCCCCCCCCNc1ccc([N+](=O)[O-])c2nonc12 (stereo not drawn) [XXV, 2-(NBD-dodecanoyl)amino-2-deoxy-3-O-hexadecyl-sn-glycero-1-O-hexylphosphonate p-nitrophenyl ester] | – | slightly more effective |

Source: US7772402B2, “Optically detectable organophosphonates” (Austria Wirtschaftsservice Gesellschaft Mit Beschrankter …, priority 2003, dated 2010)
